US20110165115A1, “SYNERGISTIC ATTRACTANTS FOR PESTIFEROUS SOCIAL INSECTS” (STERLING INTERNATIONAL INC., priority 2010, published 2011)

Key:
[1] = tested on: Polistes dominulus worker antennae; test: GC-EAD of cherry branch aeration samples
Protocol: Lapin cherry branches with severely damaged cherries and leaves and undamaged or slightly damaged branches were collected from a cherry orchard at Creston, Canada, on Jul. 29, 2009, and were transported to the Sterling International, Inc. lab (Spokane, Wash.) on the same day and kept at 4° C. before aerations. Headspace volatiles from the cherry branches (damaged or undamaged) were sampled by a battery operated pump and a high density polyacetate oven bag (48.2×59.6 cm Reynolds® Oven Bag; Richmond, Va., USA) enclosure with one activated charcoal filter tube in the air inlet, on Jul. 30, 2009. The volatiles in the enclosure were trapped on one Porapak Q tube (50/80 mesh; 30 mg in Teflon tube: 3 mm×35 mm) for 2.5 hr (airflow 300 ml/min) and extracted with 1 ml redistilled pentane. Aeration samples of the cherry branches (damaged or undamaged/slightly damaged) were injected (3 μl) splitless into a Varian CP-3800 GC equipped with a polar column (HP-INNOWax; 30 m×0.53 mm×1.0 μm film thickness; […] Helium was used as the carrier gas, and the injector and detector temperatures were 250° C. and 300° C., respectively. Column temperature was 50° C. for 1 min, rising to 240° C. at 10° C./min, and then held for 10 min. The outlet for the EAD was held in a humidified air stream flowing at 0.5 m/sec over the antennal preparation. EAD recordings were made using silver wire-glass capillary electrodes filled with Beadle-Ephrussi Ringer on freshly cut antennae. The antennal signals were stored and analyzed on a PC equipped with a serial IDAC interface box and the program EAD ver. 2.5 (Syntech, Hilversum, The Netherlands). […] (See FIG. 2.) The same chemicals were also tested on beneficial insect antennae from Chrysopa oculata, Myrmeleon crudelis, Podisus maculiventris, and Hippodarnia convergens. (See […] active peaks in the aeration samples were identified by GC-MS on an HP 6890 GC series coupled with an HP 5973 Mass Selective Detector using the same type of GC column and conditions as described above. Compounds were identified by comparison of retention times with those of authentic standards and with mass spectra of standards.

[2] = tested on: Podisus maculiventris antennae; test: GC-EAD of synthetic HIPVs on beneficial insect antennae; settings: FIG. 6
Protocol: (§1) Aeration samples of the cherry branches (damaged or undamaged/slightly damaged) were injected (3 μl) splitless into a Varian CP-3800 GC equipped with a polar column (HP-INNOWax; 30 m×0.53 mm×1.0 μm film thickness; Agilent Technologies, Wilmington, Del., USA) and a 1:1 effluent splitter that allowed simultaneous flame ionization detection (FID) and electroantennographic detection (EAD) of the European paper wasp (Polistes dominulus) worker antennae to the separated volatile compounds. Helium was used as the carrier gas, and the injector and detector temperatures were 250° C. and 300° C., respectively. Column temperature was 50° C. for 1 min, rising to 240° C. at 10° C./min, and then held for 10 min. The outlet for the EAD was held in a humidified air stream flowing at 0.5 m/sec over the antennal preparation. EAD recordings were made using silver wire-glass capillary electrodes filled with Beadle-Ephrussi Ringer on freshly cut antennae. The antennal signals were stored and analyzed on a PC equipped with a serial IDAC interface box and the program EAD ver. 2.5 (Syntech, Hilversum, The Netherlands). In addition, GC-EAD responses to a synthetic mixture (100 ng/μl each) containing nine known HIPVs including cis-3-hexen-1-ol, cis-3-hexenyl acetate, trans-β-ocimene, (E)-4,8-dimethyl-1,3,7-nonatriene, linalool, methyl salicylate, geranyl acetate, trans-β-caryophyllene and trans-β-farnesene were tested on the P. dominulus workers. (See FIG. 2.) The same chemicals were also tested on beneficial insect antennae from Chrysopa oculata, Myrmeleon crudelis, Podisus maculiventris, and Hippodarnia convergens. (See FIG. 6.) Antennally active peaks in the aeration samples were identified by GC-MS on an HP 6890 GC series coupled with an HP 5973 Mass Selective Detector using the same type of GC column and conditions as described above. Compounds were identified by comparison of retention times with those of authentic standards and with mass spectra of standards.

[3] = tested on: Chrysopa oculata antennae; test: as above; settings: FIG. 6
Protocol: as §1

[4] = tested on: Myrmeleon crudelis antennae; test: as above; settings: FIG. 6
Protocol: as §1

[5] = tested on: Hippodarnia convergens antennae; test: as above; settings: FIG. 6
Protocol: as §1

[6] = tested on: paper wasps and yellowjackets; test: Field trapping bioassays, synergism with AA/2MB (summary); format: in vivo; settings: at the doses tested
Protocol: (§2) Three field trapping experiments were carried out during late July to early August 2009, in residential and woody areas around Spokane, Wash., USA, using the newly marketed Rescue® W•H•Y traps (www.rescue.com). As used herein, the W•H•Y trap is a trap in accordance with the description of United States Patent Application Publication No. 2009/0151228. The W•H•Y trap has a top chamber and a bottom chamber. The top chamber is baited with two attractants—one of which is a solid contained in a vial (2-methyl-1-butanol) and the other a liquid mixed with water (acetic acid), herein referred to as the W•H•Y top attractant. The bottom chamber is baited with a liquid attractant (heptyl butyrate) poured onto a cotton pad, herein referred to as the W•H•Y bottom attractant. Separation of the top and bottom attractants (otherwise antagonistic to each other when released from the same chamber) in two chambers was a design feature of this trap and creates two focal attraction sources from one trap for different species of wasps, hornets, and yellowjackets. Traps were hung 1.5-2.0 m above the ground on either the fence or tree branches ca. 5 m apart within each trap line. For each trapping experiment, six sets of traps were deployed with their initial trap positions within each set being randomized. To minimize positional effects and obtain more replications, wasp collections and trap re-randomization were carried out when ≧10-20 wasps were caught in the best trap. Each replicate lasted several days depending on wasp flight activity. Captured wasps were removed from the traps and kept in the zip-bags before taking back to the laboratory for recording of the species, gender status, and catch.
(§3) Experiment 3 (Aug. 5-13, 2009) was conducted to determine the potential behavioral activity of different doses of (E)-4,8-dimethyl-1,3,7-nonatriene alone. The individual (or different doses) HIPVs were loaded into either polyethylene bags or centrifuge tube type of dispensers, and released from the top of the W•H•Y trap chamber. […]

[7] = tested on: P. dominulus workers antennae; test: GC-EAD of synthetic mixture of known HIPVs; set-up: species or system Polistes dominulus; settings: 100 ng/μl each in hexane
Protocol: as §1

V. atropilosa = format: in vivo, Vespula atropilosa; settings: Exp 1; HIPV added to WHY attractant in the top chamber, or WHY alone
V. vulgaris = test: Field trapping Experiment 1, Rescue W•H•Y traps; format: in vivo, Vespula vulgaris; settings: Exp 1; HIPV added to WHY attractant in the top chamber, or WHY alone
Protocol: as §2
(§4) Experiment 3 (Aug. 5-13, 2009) was conducted to determine the potential behavioral activity of different doses of (E)-4,8-dimethyl-1,3,7-nonatriene alone. The individual (or different doses) HIPVs were loaded into either polyethylene bags or centrifuge tube type of dispensers, and released from the top of the W•H•Y trap chamber. W•H•Y trap attractants (both top and bottom or top only) alone and water (top chamber only) were included in the test as positive and blank controls, respectively. The dispenser types, loading and release rates of the tested semiochemicals are described in Tables 1, 2 and 3.
(§5) Trap catch data were converted to proportion (P) of total captured wasps within each replicate. Data were then transformed by arcsin√P to meet the assumptions of normality and homogeneity of variances for ANOVA. Means were compared by ANOVA followed by the Ryan-Einot-Gabriel-Welsh (REGW) multiple Q test (SPSS 16.0 for Windows) at α=0.05.

D. maculata = test: Field trapping Experiment 1, Rescue W•H•Y traps; format: in vivo, Dolichovespula maculata; settings: Exp 1; HIPV added to WHY attractant in the top chamber, or WHY alone
Protocol: as §2
(§6) Experiment 1 (Jul. 22-30, 2009) tested ten synthetic HIPV candidates [(E)-2-hexenal, (Z)-3-hexen-1-ol, (Z)-3-hexenyl acetate, cis-ocimene, linalool, methyl salicylate, geranyl acetate, trans-β-caryophyllene, trans-β-farnesene and (E)-4,8-dimethyl-1,3,7-nonatriene], including several paper wasp EAD-active compounds (see FIG. 2 for details), to determine their potential synergistic effect on the Rescue® W•H•Y trap attractants to paper wasps, yellowjackets, and hornets. Experiment 2 (Aug. 5-13, 2009) tested behavioral responses of the paper wasps and yellowjackets to the Rescue® W•H•Y trap attractants (top attractants only) and its combination with (E)-4,8-dimethyl-1,3,7-nonatriene, one of the EAD-active and behaviorally significant HIPVs, in a dose-response fashion. Experiment 3 (Aug. 5-13, 2009) was conducted to determine the potential behavioral activity of different doses of (E)-4,8-dimethyl-1,3,7-nonatriene alone. The individual (or different doses) HIPVs were loaded into either polyethylene bags or centrifuge tube type of dispensers, and released from the top of the W•H•Y trap chamber. W•H•Y trap attractants (both top and bottom or top only) alone and water (top chamber only) were included in the test as positive and blank controls, respectively. The dispenser types, loading and release rates of the tested semiochemicals are described in Tables 1, 2 and 3.
as §5

V. pensylvanica = test: Field trapping Experiment 1, Rescue W•H•Y traps; format: in vivo, Vespula pensylvanica; settings: Exp 1; HIPV added to WHY attractant in the top chamber, or WHY alone
Protocol: as §2, §4, §5

P. aurifer = test: Field trapping Experiment 1, Rescue W•H•Y traps; format: in vivo, Polistes aurifer; settings: Exp 1; HIPV added to WHY attractant in the top chamber, or WHY alone
Protocol: as §2, §4, §5

yellowjackets = test: Field trapping Experiment 1, top chamber catches; format: in vivo; settings: Exp 1; HIPV combined with W•H•Y attractant (acetic acid and 2-methyl-1-butanol) in the top chamber
Protocol: as §2, §3

V. acadica = test: Field trapping Experiment 1, Rescue W•H•Y traps; format: in vivo, Vespula acadica; settings: Exp 1; HIPV added to WHY attractant in the top chamber, or WHY alone
Protocol: as §2, §4, §5

D. arenaria = test: Field trapping Experiment 1, Rescue W•H•Y traps; format: in vivo, Dolichovespula arenaria; settings: Exp 1; HIPV added to WHY attractant in the top chamber, or WHY alone
Protocol: as §2, §6, §5

P. dominulus = test: Field trapping Experiment 1, Rescue W•H•Y traps; format: in vivo, Polistes dominulus; settings: Exp 1; HIPV added to WHY attractant in the top chamber, or WHY alone
Protocol: as §2, §4, §5

V. consobrina = format: in vivo, Vespula consobrina; settings: Exp 1; HIPV added to WHY attractant in the top chamber, or WHY alone
Protocol: as §2, with “catch. […]” for “catch.”
as §5

[8] = aeration of severely damaged cherry branches, at current release rates
[9] = aeration of undamaged or slightly damaged cherry branches

SMILES | EAD response of worker antennae [1, 8] | EAD response of worker antennae [7] | Total Yellowjacket Catches V. atropilosa (V. atropilosa) | Total Yellowjacket Catches V. vulgaris (V. vulgaris) | Total Yellowjacket Catches D. maculata (D. maculata) | Total Yellowjacket Catches V. pensylvanica (V. pensylvanica) | Total Paper Wasps P. aurifer (P. aurifer) | Total Yellowjacket Catches V. acadica (V. acadica) | Total Yellowjacket Catches D. arenaria (D. arenaria) | Total Paper Wasps P. dominulus (P. dominulus) | Total Yellowjacket Catches V. consobrina (V. consobrina) | other results
C=C/C(C)=C/C/C=C(\C)CCC=C(C)C [α-farnesene] | did not elicit significant EAD-responses | – | – | – | – | – | – | – | – | – | – | –
C=C/C(C)=C/CC=C(C)C [β-ocimene, trans-β-ocimene] | – | responded consistently | – | – | – | – | – | – | – | – | – | EAD-response [2]: strong EAD-responses; EAD-response [3]: strong EAD-responses; EAD-response [4]: strong EAD-responses; EAD-response [5]: strong EAD-responses; synergism of attraction to mixture of acetic acid and 2-methyl-1-butanol [6]: significantly synergize
CCCCCCCCC=O [nonanal] | repeatable antennal response | – | – | – | – | – | – | – | – | – | – | EAD response of worker antennae [1, 9]: strongly responded
CC(=O)OC/C=C(\C)CCC=C(C)C [Geranyl Acetate, geranyl acetate] | – | responded consistently | 2 | 18 | 1 | 128 | 4 | 0 | 2 | 13 | 1 | effect on trap catches of yellowjackets in the top chambers (yellowjackets): inhibitory effect
CCC/C=C/C=O [E-2-Hexenal, (E)-2-hexenal] | – | – | 3 | 44 | 2 | 423 | 8 | 0 | 4 | 19 | 0 | –
CCC/C=C/COC(C)=O [(E)-2-hexenyl acetate] | – | – | – | – | – | – | – | – | – | – | – | EAD response of worker antennae [1, 9]: strongly responded
C=C/C=C(/C)CCC=C(C)C [(Z)-4,8-dimethyl-1,3,7-nonatriene] | – | responded consistently | – | – | – | – | – | – | – | – | – | –
Cc1ccc(C(C)C)cc1 [p-cymene] | did not elicit significant EAD-responses | – | – | – | – | – | – | – | – | – | – | –
C=CC(C)(O)CCC=C(C)C (stereo not drawn) [Linalool, linalool] | – | responded consistently | 0 | 32 | 1 | 291 | 13 | 0 | 0 | 46 | 0 | –
